The text below walks through data of patent US20080108569A1, “Compositions and Methods for Treating Diseases Associated With Phlpp” (The Regents of the University of California, priority 2005, published 2008).

For assay [1], the target named is T1, PHLPP-1α (Homo sapiens, UniProt O60346).
T1 construct: The full-length human PHLPP-1α cDNA was cloned by combining the following cDNA fragments; expressed in transfected cells; host or cells: 293T cells
T1 sequence (O60346 1-1205 isoform O60346-2): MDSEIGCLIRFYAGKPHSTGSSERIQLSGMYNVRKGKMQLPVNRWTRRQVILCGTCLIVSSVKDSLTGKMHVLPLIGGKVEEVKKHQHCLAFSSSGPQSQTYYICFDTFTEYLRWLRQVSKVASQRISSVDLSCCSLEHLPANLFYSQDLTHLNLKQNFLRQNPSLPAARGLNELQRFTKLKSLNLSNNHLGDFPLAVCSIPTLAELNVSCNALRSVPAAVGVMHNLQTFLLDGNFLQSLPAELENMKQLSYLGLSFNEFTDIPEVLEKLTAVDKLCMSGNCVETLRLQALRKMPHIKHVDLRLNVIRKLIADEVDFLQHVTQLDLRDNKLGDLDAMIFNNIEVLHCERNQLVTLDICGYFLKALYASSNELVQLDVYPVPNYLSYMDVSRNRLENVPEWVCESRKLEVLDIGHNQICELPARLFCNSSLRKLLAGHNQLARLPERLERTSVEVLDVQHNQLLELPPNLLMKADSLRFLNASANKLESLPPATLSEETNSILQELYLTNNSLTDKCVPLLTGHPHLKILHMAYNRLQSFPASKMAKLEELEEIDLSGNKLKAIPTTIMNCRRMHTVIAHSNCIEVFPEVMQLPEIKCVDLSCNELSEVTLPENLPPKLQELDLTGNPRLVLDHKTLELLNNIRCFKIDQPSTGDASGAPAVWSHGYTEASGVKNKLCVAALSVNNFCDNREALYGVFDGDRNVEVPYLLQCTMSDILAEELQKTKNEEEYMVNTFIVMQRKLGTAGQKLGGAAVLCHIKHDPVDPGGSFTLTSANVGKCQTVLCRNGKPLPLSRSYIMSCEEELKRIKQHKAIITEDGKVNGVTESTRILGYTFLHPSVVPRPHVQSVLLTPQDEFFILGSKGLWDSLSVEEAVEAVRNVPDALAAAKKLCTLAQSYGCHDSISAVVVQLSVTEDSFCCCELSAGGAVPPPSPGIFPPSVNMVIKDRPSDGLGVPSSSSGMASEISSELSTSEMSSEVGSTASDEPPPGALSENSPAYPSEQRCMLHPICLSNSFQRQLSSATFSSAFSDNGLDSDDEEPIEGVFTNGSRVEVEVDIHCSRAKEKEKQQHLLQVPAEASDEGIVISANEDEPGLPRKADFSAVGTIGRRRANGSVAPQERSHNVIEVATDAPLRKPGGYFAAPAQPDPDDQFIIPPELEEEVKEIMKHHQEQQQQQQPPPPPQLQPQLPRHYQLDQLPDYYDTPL
The experiment in a line: okadaic acid sensitivity of PHLPP-1α mediated dephosphorylation of Akt at Ser473 in 293T cells. It counts as cell-based. Conditions: OA 1 μM for 15 minutes, 293T cells transfected with HA-PHLPP-1α. How it is done:
FIG. 29. PHLPP-1α mediated-dephosphorylation of Akt at Ser473 is okadaic acid-insensitive. 293T cells transfected with HA-PHLPP-1α were serum starved overnight. The cells were then left untreated (lane 1), treated with insulin (100 nM) for 30 minutes (lane 2), treated with insulin for 30 minutes followed by okadaic acid (OA, 1 μM) for 15 minutes (lane 3), or treated with insulin for 30 minutes followed by OA for 15 minutes followed by LY294002 (LY, 30 μM) for 20 minutes (lane 4). Western blots showing phosphorylation of endogenous Akt as detected by P308 and P473 antibodies. Total Akt was detected using the anti-Akt antibody.

The test system of assay [2] is MDA-MB-231 cells. In words: apoptosis assay, sub-2N DNA by flow cytometry. Conditions: co-expressed with PHLPP2. It counts as cell-based. The procedure: Apoptosis assays were performed as described previously (Brognard et al., 2001). Briefly, cells were transfected with different PHLPP expression constructs or siRNAs. In the case of gating for transfected cells, a GFP expression construct was co-transfected into the cells. Approximately 24 hours post-transfection, the cells were switched to low serum medium (DMEM plus 0.1% FBS) and allowed to grow for an additional 48 hours. For LY294002 (25 μM) treatment, the drug was added at the time when the cells were switched into the low serum medium. The cells were collected and stained with propidium iodide (25 μg/ml). Apoptotic cells were defined as sub-2N DNA containing cells. Quantification of apoptosis was obtained using flow cytometry analysis with a Becton Dickinson FACSort.
Apoptotic assays were performed as described above. To determine G1/S ratios, cells were co-transfected with GFP and HA-PHLPP2 and incubated under high serum (10% FBS) conditions for 48 hrs and cells were gated based on GFP expression as described above. For BrdU incorporation assays, cells were transfected with 100 nM siRNA (si-1) and incubated for 48 hrs prior to performing assay following manufacturers protocol (Oncogene Research Products).
On the technique in general: In flow cytometry, cells or beads pass a laser one at a time.

Consider `C=C1[C@@H](O)[C@@H]2O[C@]3(CC[C@H](/C=C/[C@@H](C)[C@@H]4CC(C)=C[C@@]5(O[C@H](C[C@@](C)(O)C(=O)O)CC[C@H]5O)O4)O3)CC[C@H]2O[C@@H]1[C@@H](O)C[C@H](C)[C@H]1O[C@@]2(CCCCO2)CC[C@H]1C` [okadaic acid], for which the “sensitivity of PHLPP-1α mediated dephosphorylation of Akt at Ser473” value in assay [1] is reported as “insensitive”.
Regarding “S473D: phosphomimetic and thus constitutively active Akt construct, resistant to dephosphorylation by PHLPP2”, in assay [2], the “rescue of the apoptosis induced by PHLPP2” value is reported as “two-thirds”.
